Experimental data published in patent US5834494A, “Pyridylcarbamoyl Indolines” (SmithKline Beecham p.l.c., priority 1993, dated 1998).

Experiment: Geller Seifter Procedure
Format: in vivo
Details: dose range 0.5-10 mg/kg p.o.; procedure of WO 94/04533
Description: The compound of example 2 was tested following the procedure outlined in WO 94/04533.

With `Cc1cc2c(cc1Cl)N(C(=O)Nc1cccnc1)CC2` [Example 2, 6-Chloro-5-methyl-1-(3-pyridycarbamoyl)indoline] the punished responding was “significant increase in punished responding”.
